Measured values published in the supplement of paper PMC10307832.

Columns and labels:
Assay in all cases: relative viability (nuclei count vs DMSO), 5 days (fraction); higher = more cells survive
LCLC-97TM1 = test system: LCLC-97TM1
Outline: (§1)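 Lung cancer cell lines were pin-tool dosed in 1536-well plates on the day after seeding, with either a lone drug or a fixed anchor-drug dose plus five library-drug doses (not always all listed) in √10 steps. Nuclei were counted on 4× images after 5 days. Relative viability is the ratio of treated-well to vehicle-well nuclei counts, with each value a median of duplicate plates.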

NCI-H2085 = test system: NCI-H2085
Outline: as §1

NCI-H1944 = test system: NCI-H1944
Outline: as §1

NCI-H3122 = test system: NCI-H3122
Outline: as §1

NCI-H1666 = test system: NCI-H1666
Outline: as §1

NCI-H441 = test system: NCI-H441
Outline: as §1

NCI-H2087 = test system: NCI-H2087
Outline: as §1

NCI-H2126 = test system: NCI-H2126
Outline: as §1

EPLC-272H = test system: EPLC-272H
Outline: as §1

COR-L23 = test system: COR-L23
Outline: as §1

HCC-78 = test system: HCC-78
Outline: as §1

LXF-289 = test system: LXF-289
Outline: as §1

NCI-H1793 = test system: NCI-H1793
Outline: as §1

ChaGo-K-1 = test system: ChaGo-K-1
Outline: as §1

PC-14 = test system: PC-14
Outline: as §1

HOP-62 = test system: HOP-62
Outline: as §1

NCI-H1437 = test system: NCI-H1437
Outline: as §1

NCI-H1650 = test system: NCI-H1650
Outline: as §1

HARA = test system: HARA
Outline: as §1

NCI-H661 = test system: NCI-H661
Outline: as §1

NCI-H1395 = test system: NCI-H1395
Outline: as §1

H3255 = test system: H3255
Outline: as §1

Question: How did the relative viability (LCLC-97TM1; first compound 0.2 µM) turn out when `Cc1csc(=NC2CCCCC2)n1/N=C/c1ccc(O)c(O)c1O` [MIM1] + CC(=O)c1c(C)c2cnc(Nc3ccc(N4CCNCC4)cn3)nc2n(C2CCCC2)c1=O [Palbociclib] (partner 0.5 µM) was run?
Answer: 0.22

Question: And the relative viability (LCLC-97TM1; first compound 0.6325 µM)?
Answer: 0.22

Question: And the relative viability (LCLC-97TM1; first compound 2 µM)?
Answer: 0.217

Question: What about the relative viability (LCLC-97TM1; first compound 6.325 µM) of the same molecule?
Answer: 0.169

Question: And the relative viability (LCLC-97TM1; first compound 20 µM)?
Answer: 0.0835

Question: What about the relative viability (NCI-H2085; first compound 0.2 µM) of the same molecule?
Answer: 0.476

Question: What about the relative viability (NCI-H2085; first compound 0.6325 µM) of the same molecule?
Answer: 0.466

Question: And the relative viability (NCI-H2085; first compound 2 µM)?
Answer: 0.461

Question: And the relative viability (NCI-H2085; first compound 6.325 µM)?
Answer: 0.482

Question: And the relative viability (NCI-H2085; first compound 20 µM)?
Answer: 0.537

Question: What about the relative viability (NCI-H1944; first compound 0.2 µM) of the same molecule?
Answer: 0.369

Question: And the relative viability (NCI-H1944; first compound 0.6325 µM)?
Answer: 0.314

Question: What about the relative viability (NCI-H1944; first compound 2 µM) of the same molecule?
Answer: 0.248

Question: And the relative viability (NCI-H1944; first compound 6.325 µM)?
Answer: 0.255

Question: And the relative viability (NCI-H1944; first compound 20 µM)?
Answer: 0.186

Question: What about the relative viability (NCI-H3122; first compound 0.2 µM) of the same molecule?
Answer: 0.186

Question: What about the relative viability (NCI-H3122; first compound 0.6325 µM) of the same molecule?
Answer: 0.195

Question: What about the relative viability (NCI-H3122; first compound 2 µM) of the same molecule?
Answer: 0.174

Question: And the relative viability (NCI-H3122; first compound 6.325 µM)?
Answer: 0.187

Question: What about the relative viability (NCI-H3122; first compound 20 µM) of the same molecule?
Answer: 0.124

Question: And the relative viability (NCI-H1666; first compound 0.2 µM)?
Answer: 0.668

Question: And the relative viability (NCI-H1666; first compound 0.6325 µM)?
Answer: 0.608

Question: And the relative viability (NCI-H1666; first compound 2 µM)?
Answer: 0.611

Question: What about the relative viability (NCI-H1666; first compound 6.325 µM) of the same molecule?
Answer: 0.647

Question: And the relative viability (NCI-H1666; first compound 20 µM)?
Answer: 0.67

Question: What about the relative viability (NCI-H441; first compound 0.2 µM) of the same molecule?
Answer: 0.273

Question: What about the relative viability (NCI-H441; first compound 0.6325 µM) of the same molecule?
Answer: 0.266

Question: What about the relative viability (NCI-H441; first compound 2 µM) of the same molecule?
Answer: 0.205

Question: And the relative viability (NCI-H441; first compound 6.325 µM)?
Answer: 0.186

Question: What about the relative viability (NCI-H441; first compound 20 µM) of the same molecule?
Answer: 0.114

Question: And the relative viability (NCI-H2087; first compound 0.2 µM)?
Answer: 0.228

Question: And the relative viability (NCI-H2087; first compound 0.6325 µM)?
Answer: 0.269

Question: And the relative viability (NCI-H2087; first compound 2 µM)?
Answer: 0.24

Question: What about the relative viability (NCI-H2087; first compound 6.325 µM) of the same molecule?
Answer: 0.226

Question: And the relative viability (NCI-H2087; first compound 20 µM)?
Answer: 0.206

Question: And the relative viability (NCI-H2126; first compound 0.2 µM)?
Answer: 0.336

Question: And the relative viability (NCI-H2126; first compound 0.6325 µM)?
Answer: 0.388

Question: What about the relative viability (NCI-H2126; first compound 2 µM) of the same molecule?
Answer: 0.348

Question: And the relative viability (NCI-H2126; first compound 6.325 µM)?
Answer: 0.34

Question: And the relative viability (NCI-H2126; first compound 20 µM)?
Answer: 0.329

Question: And the relative viability (EPLC-272H; first compound 0.2 µM)?
Answer: 0.328

Question: What about the relative viability (EPLC-272H; first compound 0.6325 µM) of the same molecule?
Answer: 0.332

Question: And the relative viability (EPLC-272H; first compound 2 µM)?
Answer: 0.302

Question: What about the relative viability (EPLC-272H; first compound 6.325 µM) of the same molecule?
Answer: 0.279

Question: And the relative viability (EPLC-272H; first compound 20 µM)?
Answer: 0.149

Question: And the relative viability (COR-L23; first compound 0.2 µM)?
Answer: 0.301

Question: And the relative viability (COR-L23; first compound 0.6325 µM)?
Answer: 0.328

Question: And the relative viability (COR-L23; first compound 2 µM)?
Answer: 0.258

Question: What about the relative viability (COR-L23; first compound 6.325 µM) of the same molecule?
Answer: 0.18

Question: And the relative viability (COR-L23; first compound 20 µM)?
Answer: 0.138

Question: What about the relative viability (HCC-78; first compound 0.2 µM) of the same molecule?
Answer: 0.463

Question: And the relative viability (HCC-78; first compound 2 µM)?
Answer: 0.494

Question: And the relative viability (HCC-78; first compound 6.325 µM)?
Answer: 0.377

Question: And the relative viability (HCC-78; first compound 20 µM)?
Answer: 0.402

Question: What about the relative viability (LXF-289; first compound 0.2 µM) of the same molecule?
Answer: 0.603

Question: What about the relative viability (LXF-289; first compound 0.6325 µM) of the same molecule?
Answer: 0.594

Question: What about the relative viability (LXF-289; first compound 2 µM) of the same molecule?
Answer: 0.583

Question: What about the relative viability (LXF-289; first compound 6.325 µM) of the same molecule?
Answer: 0.535

Question: What about the relative viability (LXF-289; first compound 20 µM) of the same molecule?
Answer: 0.237

Question: What about the relative viability (NCI-H1793; first compound 0.2 µM) of the same molecule?
Answer: 0.317

Question: What about the relative viability (NCI-H1793; first compound 2 µM) of the same molecule?
Answer: 0.353

Question: What about the relative viability (NCI-H1793; first compound 6.325 µM) of the same molecule?
Answer: 0.29

Question: And the relative viability (NCI-H1793; first compound 20 µM)?
Answer: 0.293

Question: What about the relative viability (ChaGo-K-1; first compound 0.2 µM) of the same molecule?
Answer: 0.951

Question: What about the relative viability (ChaGo-K-1; first compound 0.6325 µM) of the same molecule?
Answer: 0.926

Question: What about the relative viability (ChaGo-K-1; first compound 2 µM) of the same molecule?
Answer: 0.961

Question: What about the relative viability (ChaGo-K-1; first compound 6.325 µM) of the same molecule?
Answer: 0.7

Question: And the relative viability (ChaGo-K-1; first compound 20 µM)?
Answer: 0.163

Question: What about the relative viability (PC-14; first compound 0.2 µM) of the same molecule?
Answer: 0.475

Question: What about the relative viability (PC-14; first compound 0.6325 µM) of the same molecule?
Answer: 0.554

Question: And the relative viability (PC-14; first compound 2 µM)?
Answer: 0.464

Question: What about the relative viability (PC-14; first compound 6.325 µM) of the same molecule?
Answer: 0.454

Question: And the relative viability (PC-14; first compound 20 µM)?
Answer: 0.145

Question: And the relative viability (HOP-62; first compound 0.2 µM)?
Answer: 0.454

Question: What about the relative viability (HOP-62; first compound 0.6325 µM) of the same molecule?
Answer: 0.44

Question: And the relative viability (HOP-62; first compound 2 µM)?
Answer: 0.404

Question: And the relative viability (HOP-62; first compound 6.325 µM)?
Answer: 0.431

Question: What about the relative viability (HOP-62; first compound 20 µM) of the same molecule?
Answer: 0.127

Question: And the relative viability (NCI-H1437; first compound 0.2 µM)?
Answer: 0.305

Question: And the relative viability (NCI-H1437; first compound 0.6325 µM)?
Answer: 0.35

Question: And the relative viability (NCI-H1437; first compound 2 µM)?
Answer: 0.312

Question: And the relative viability (NCI-H1437; first compound 6.325 µM)?
Answer: 0.232

Question: What about the relative viability (NCI-H1437; first compound 20 µM) of the same molecule?
Answer: 0.149

Question: And the relative viability (NCI-H1650; first compound 0.2 µM)?
Answer: 0.446

Question: What about the relative viability (NCI-H1650; first compound 0.6325 µM) of the same molecule?
Answer: 0.316

Question: And the relative viability (NCI-H1650; first compound 2 µM)?
Answer: 0.256

Question: What about the relative viability (NCI-H1650; first compound 6.325 µM) of the same molecule?
Answer: 0.137

Question: And the relative viability (NCI-H1650; first compound 20 µM)?
Answer: 0.136

Question: And the relative viability (HARA; first compound 0.2 µM)?
Answer: 0.253

Question: What about the relative viability (HARA; first compound 0.6325 µM) of the same molecule?
Answer: 0.302

Question: And the relative viability (HARA; first compound 2 µM)?
Answer: 0.281

Question: And the relative viability (HARA; first compound 6.325 µM)?
Answer: 0.251

Question: What about the relative viability (HARA; first compound 20 µM) of the same molecule?
Answer: 0.169

Question: And the relative viability (NCI-H661; first compound 0.2 µM)?
Answer: 0.404

Question: What about the relative viability (NCI-H661; first compound 0.6325 µM) of the same molecule?
Answer: 0.42

Question: And the relative viability (NCI-H661; first compound 2 µM)?
Answer: 0.348

Question: And the relative viability (NCI-H661; first compound 6.325 µM)?
Answer: 0.33

Question: And the relative viability (NCI-H661; first compound 20 µM)?
Answer: 0.301

Question: And the relative viability (NCI-H1395; first compound 0.2 µM)?
Answer: 0.583

Question: And the relative viability (NCI-H1395; first compound 0.6325 µM)?
Answer: 0.6

Question: And the relative viability (NCI-H1395; first compound 2 µM)?
Answer: 0.596

Question: And the relative viability (NCI-H1395; first compound 6.325 µM)?
Answer: 0.579

Question: And the relative viability (NCI-H1395; first compound 20 µM)?
Answer: 0.406

Question: And the relative viability (H3255; first compound 0.2 µM)?
Answer: 0.308

Question: And the relative viability (H3255; first compound 0.6325 µM)?
Answer: 0.326

Question: And the relative viability (H3255; first compound 2 µM)?
Answer: 0.31

Question: And the relative viability (H3255; first compound 6.325 µM)?
Answer: 0.326

Question: What about the relative viability (H3255; first compound 20 µM) of the same molecule?
Answer: 0.243
